Reference: patent publication US20240108601A1, “TREATMENT OF MENTAL DISORDERS” (GH Research Ireland Limited, priority 2022, published 2024)
Read-outs that look alike come from different tables or passages of the source.

Columns and labels:
[1] = Pharmacokinetics of 5-MeO-DMT and bufotenine after single inhaled dose; type: in vivo, human; conditions: from 15 min onwards after 5-MeO-DMT inhalation; LLOQ
Description: Blood samples were obtained at 1; 2; 4; 7; 10; 15; 20; 30; 45 min and 1; 1.5; 2; 3; 4 hours after administration.
PK parameters were generated by algebraic analysis of the concentration versus time plots for each individual. The analysis was carried out using the software Phoenix WinNonlin 6.3.

human hepatocytes = assay: Metabolite identification in human hepatocyte suspension; conditions: 5-MeO-DMT free base 10 μM, incubated up to 120 minutes
Description: For incubations with cryopreserved hepatocytes, the 2 mM stock solution was diluted with Leibovitz L-15 medium to a concentration of 20 μM or 2 μM. An aliquot (250 μL) of the 20 μM and 2 μM test substance formulations was added to each hepatocyte incubation sample (250 μL), as appropriate, so that the final test substance concentration in the incubations was 10 μM or 1 μM, respectively, and incubations contained less than 1% (v/v) solvent.
Incubations were performed at ca. 37° C. in a shaking water bath (total incubation volume 0.5 mL). For 1 μM, incubations were terminated after 0, 5, 10, 20, 30, 60 and 120 minutes, by the addition of ice-cold acetonitrile (0.5 mL).
The samples were vortex mixed and centrifuged at ca 13,000 rpm for 10 minutes at room temperature. Following centrifugation, the protein-free supernatants were removed for analysis.
Blank control incubations were carried out with Leibovitz L-15 medium in place of the test substance. No cells control samples were performed with Leibovitz L-15 medium in place of hepatocytes. Aliquots of the blank control samples were taken at 120 minutes, while no cells control samples were taken at 0, 30 and 120 for 1 μM incubations and at 0 and 120 minutes for 10 μM incubations.
All 1 μM incubations were performed in duplicate, while all 10 μM incubations were performed in singlet. All samples were stored at −80° C. (nominal) prior to analysis.
Prior to sample analysis a 100 μL aliquot of each sample was evaporated to near dryness under a steady stream of nitrogen at room temperature, and subsequently reconstituted in 50 μL of mobile phase A (0.1% formic acid in water). Each sample (0, 30 and 120-minute, 10 μM) was analysed using accurate mass LC-MS to determine relative levels of parent compound at each time-point, and determine the profile of metabolites formed. Appropriate blank and control samples were also analysed. The 10 and 60-minute, 10 μM incubation samples were not analysed and were stored at −80° C. (nominal). […]

[2] = LC-MS/MS of 5-MeO-DMT, bufotenine and 5-MIAA in urine, serum and breastmilk of lactating PPD patient; infant exposure estimates; conditions: for Breastmilk concentration / Serum concentration / Urine concentration: second patient
Source text: When determining the potential impact of maternal drug administration on a breastfed infant, it is standard practice to calculate the Relative Infant Dose (RID) (Bennett, P. N., and L. J. Notarianni. “Risk from drugs in breast milk: an analysis by relative dose.” Br J Clin Pharmacol 42.5 (1996): P673-4). The RID is the dosage (in μg/kg/day) the infant is exposed to by the intake of breast milk, divided by the dosage (in μg/kg/day) the mother receives.
Using estimates for daily intake of breast milk and the number of feeds as well as the measured breast milk concentrations the exposure of the infant can be determined.
For example, a published estimate for daily intake of breast milk as a function of infant weight is 150 ml/kg/day. To model the exposure, it is assumed that an infant of 5 kg is fed three times over 24 hours, receiving 250 ml breast milk each time.
The second patient was lactating, and, per the clinical trial protocol, breastmilk samples were collected pre-dosing and at multiple timepoints after administration of the last dose. […] Similar analyses were carried out on patient serum and urine samples.

Plasma binding of 5-MIAA = type: in vitro ADME; conditions: for fraction unbound: human, plasma
Description: (§1) Binding to human plasma protein was determined. Reported are the unbound fraction (fu) for three replicates as well as the mean unbound fraction, the standard deviation and the mean % recovery (Table 8).

human plasma protein = assay: Plasma binding of 5-MIAA; type: in vitro ADME
Description: as §1

[3] = tested on: human hepatocytes (Hμrel HumanPool co-culture); assay: Metabolic stability in Hμrel human hepatocyte co-culture
[4] = 5 kg infant, three feeds of 250 ml

| Molecule | Relative Proportion of compounds identified (human hepatocytes) [%] | Breastmilk concentration ([2]; 1.0 hrs after last dose) | Serum concentration ([2]; 1.0 hrs after last dose) | Breastmilk concentration ([2]; 2.5 hrs after last dose) | Serum concentration ([2]; 2.5 hrs after last dose) | Breastmilk concentration ([2]; 8.5 hrs after last dose) | Urine concentration ([2]; 8.5 hrs after last dose) | Breastmilk concentration ([2]; 24.0 hrs after last dose) | Serum concentration ([2]; 24.0 hrs after last dose) | Urine concentration ([2]; 24.0 hrs after last dose) | Breastmilk concentration ([2]; 120.0 hrs after last dose) | Serum concentration ([2]; 120.0 hrs after last dose) | Urine concentration ([2]; 120.0 hrs after last dose) | Breastmilk concentration ([2]; −24.0 hrs (pre-dosing)) | Serum concentration ([2]; −24.0 hrs (pre-dosing)) | Urine concentration ([2]; −24.0 hrs (pre-dosing)) | other results |
| --- | --- | --- | --- | --- | --- | --- | --- | --- | --- | --- | --- | --- | --- | --- | --- | --- | --- |
| CN(C)CCc1c[nH]c2ccc(O)cc12 [Bufotenine] | 5 | BLQ (Below limit of quantification. The lower limit of quantification is 25 pg/ml for both 5-MeO-DMT and 5-MIAA in both serum and breastmilk; it is 25 pg/ml in urine for 5-MeO-DMT and 250 pg/ml for 5-MIAA in urine.) | BLQ (Below limit of quantification. The lower limit of quantification is 25 pg/ml for both 5-MeO-DMT and 5-MIAA in both serum and breastmilk; it is 25 pg/ml in urine for 5-MeO-DMT and 250 pg/ml for 5-MIAA in urine.) | BLQ (Below limit of quantification. The lower limit of quantification is 25 pg/ml for both 5-MeO-DMT and 5-MIAA in both serum and breastmilk; it is 25 pg/ml in urine for 5-MeO-DMT and 250 pg/ml for 5-MIAA in urine.) | BLQ (Below limit of quantification. The lower limit of quantification is 25 pg/ml for both 5-MeO-DMT and 5-MIAA in both serum and breastmilk; it is 25 pg/ml in urine for 5-MeO-DMT and 250 pg/ml for 5-MIAA in urine.) | BLQ (Below limit of quantification. The lower limit of quantification is 25 pg/ml for both 5-MeO-DMT and 5-MIAA in both serum and breastmilk; it is 25 pg/ml in urine for 5-MeO-DMT and 250 pg/ml for 5-MIAA in urine.) | BLQ (Below limit of quantification. The lower limit of quantification is 25 pg/ml for both 5-MeO-DMT and 5-MIAA in both serum and breastmilk; it is 25 pg/ml in urine for 5-MeO-DMT and 250 pg/ml for 5-MIAA in urine.) | BLQ (Below limit of quantification. The lower limit of quantification is 25 pg/ml for both 5-MeO-DMT and 5-MIAA in both serum and breastmilk; it is 25 pg/ml in urine for 5-MeO-DMT and 250 pg/ml for 5-MIAA in urine.) | BLQ (Below limit of quantification. The lower limit of quantification is 25 pg/ml for both 5-MeO-DMT and 5-MIAA in both serum and breastmilk; it is 25 pg/ml in urine for 5-MeO-DMT and 250 pg/ml for 5-MIAA in urine.) | BLQ (Below limit of quantification. The lower limit of quantification is 25 pg/ml for both 5-MeO-DMT and 5-MIAA in both serum and breastmilk; it is 25 pg/ml in urine for 5-MeO-DMT and 250 pg/ml for 5-MIAA in urine.) | BLQ (Below limit of quantification. The lower limit of quantification is 25 pg/ml for both 5-MeO-DMT and 5-MIAA in both serum and breastmilk; it is 25 pg/ml in urine for 5-MeO-DMT and 250 pg/ml for 5-MIAA in urine.) | BLQ (Below limit of quantification. The lower limit of quantification is 25 pg/ml for both 5-MeO-DMT and 5-MIAA in both serum and breastmilk; it is 25 pg/ml in urine for 5-MeO-DMT and 250 pg/ml for 5-MIAA in urine.) | BLQ (Below limit of quantification. The lower limit of quantification is 25 pg/ml for both 5-MeO-DMT and 5-MIAA in both serum and breastmilk; it is 25 pg/ml in urine for 5-MeO-DMT and 250 pg/ml for 5-MIAA in urine.) | BLQ (Below limit of quantification. The lower limit of quantification is 25 pg/ml for both 5-MeO-DMT and 5-MIAA in both serum and breastmilk; it is 25 pg/ml in urine for 5-MeO-DMT and 250 pg/ml for 5-MIAA in urine.) | BLQ (Below limit of quantification. The lower limit of quantification is 25 pg/ml for both 5-MeO-DMT and 5-MIAA in both serum and breastmilk; it is 25 pg/ml in urine for 5-MeO-DMT and 250 pg/ml for 5-MIAA in urine.) | BLQ (Below limit of quantification. The lower limit of quantification is 25 pg/ml for both 5-MeO-DMT and 5-MIAA in both serum and breastmilk; it is 25 pg/ml in urine for 5-MeO-DMT and 250 pg/ml for 5-MIAA in urine.) | Blood concentration of metabolite bufotenine [1]: < 0.025 ng/mL |
| COc1ccc2[nH]cc(CC[N+](C)(C)[O-])c2c1 [5-MeO-DMT-N-oxide] | 1 |  |  |  |  |  |  |  |  |  |  |  |  |  |  |  |  |
| CC(=O)CC(c1ccccc1)c1c(O)c2ccccc2oc1=O (stereo not shown) [Warfarin, reference compound] |  |  |  |  |  |  |  |  |  |  |  |  |  |  |  |  | recovery (Plasma binding of 5-MIAA; human plasma): 78.1%; fraction unbound (Plasma binding of 5-MIAA; read-out: Unbound fraction (fu), Replicate 1): 0.0418; fraction unbound (Plasma binding of 5-MIAA; read-out: Unbound fraction (fu), Replicate 2): 0.0356; fraction unbound (Plasma binding of 5-MIAA; read-out: Unbound fraction (fu), Replicate 3): 0.0358; fraction unbound (Plasma binding of 5-MIAA; three replicates, read-out: Mean fu): 0.0377 |
| 5-Methoxyindole acetic acid [5-MIAA] |  | 13945.2 pg/mL | 263.092 ng/mL | 13240.9 pg/mL | 101.9947 ng/mL | 359.4 pg/mL | 291651 pg/mL | 35.5 pg/mL | 0.2706 ng/mL | 18649 pg/mL | BLQ (Below limit of quantification. The lower limit of quantification is 25 pg/ml for both 5-MeO-DMT and 5-MIAA in both serum and breastmilk; it is 25 pg/ml in urine for 5-MeO-DMT and 250 pg/ml for 5-MIAA in urine.) | 0.0671 ng/mL | 9444 pg/mL | BLQ (Below limit of quantification. The lower limit of quantification is 25 pg/ml for both 5-MeO-DMT and 5-MIAA in both serum and breastmilk; it is 25 pg/ml in urine for 5-MeO-DMT and 250 pg/ml for 5-MIAA in urine.) | 0.051 ng/mL | 8113 pg/mL | Mean % Recovery (human plasma protein): 81.4%; Plasma binding (mean fraction unbound) (human plasma protein): ~50%; Unbound fraction (fu), Replicate 1 (human plasma protein): 0.499; Unbound fraction (fu), Replicate 2 (human plasma protein): 0.462; Unbound fraction (fu), Replicate 3 (human plasma protein): 0.544; Mean fu (human plasma protein; three replicates): 0.502; DID of 5-MIAA per kg [2, 4]: 0.001377 mg/kg/day; DID, total exposure of the infant to 5-MIAA [2, 4]: 0.006886 mg/day; Disappearance with stromal cell controls ([3]; 0-72 h): no disappearance; Remaining abundance after 72h ([3]; hepatocytes, 1 and 10 μM): 75-82%; In vitro intrinsic clearance ([3]; human hepatocytes, 1 μM): 0.15 μl/min/million cells |
